Reference: patent publication US9776972B2, “Pyrazole derivatives as arginine methyltransferase inhibitors and uses thereof” (priority 2013, dated 2017)
Like-named read-outs stand apart in the source and are kept apart here.

Experiments:
[1] = test system: mono-methyl arginine in RKO cells; assay: RKO Methylation Assay, In Cell Western (ICW) for mono-methyl arginine and DNA content; type: cell-based; conditions: Homo sapiens, RKO, 72 h
How it was run: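 RKO cells treated with compound for 72 hours at 37 °C, then methanol-fixed and stained overnight at 4 °C with anti-mono-methyl arginine antibody, plus DRAQ5 for DNA. Signal ratio from 700 and 800 nm infrared scans normalized to DMSO (minimum) and 20 μM reference compound (maximum); EC30 from triplicate curves.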

human PRMT6 = biological target: T1, human PRMT6 (Homo sapiens, UniProt Q96LA8); assay: PRMT6 Biochemical Assay (3H-SAM Flashplate, peptide substrate); conditions: Biochemical IC50 PRMT6, single experiment or average of multiple experiments
T1 construct: Flag-PRMT6-His; made in house; host or cells: HEK 293F cells (BacMam baculovirus)
T1 sequence (Q96LA8 with tags, fused parts or gaps): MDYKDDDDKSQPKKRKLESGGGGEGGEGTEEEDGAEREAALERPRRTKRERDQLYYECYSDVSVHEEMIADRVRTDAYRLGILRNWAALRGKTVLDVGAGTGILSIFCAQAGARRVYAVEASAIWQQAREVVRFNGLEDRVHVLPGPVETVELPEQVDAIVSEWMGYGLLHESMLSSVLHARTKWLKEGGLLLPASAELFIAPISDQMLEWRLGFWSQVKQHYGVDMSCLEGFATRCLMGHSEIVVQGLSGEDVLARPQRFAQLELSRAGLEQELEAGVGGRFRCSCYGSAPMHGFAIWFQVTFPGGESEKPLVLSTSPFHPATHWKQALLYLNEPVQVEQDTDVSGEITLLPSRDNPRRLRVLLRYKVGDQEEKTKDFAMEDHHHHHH
How it was run: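 Flag-PRMT6-His, expressed in mammalian cells from a BacMam vector, was preincubated with compound for 30 min at room temperature in Bicine pH 7.6 buffer with TCEP, BSG and Tween 20. Reactions were started with ³H-SAM and a biotinylated histone H4 36-50 peptide, then stopped with cold SAM (400 uM final). Labeled peptide was captured on streptavidin Flashplates, counted, and fitted to a 3- or 4-parameter curve.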

[2] = RKO cells, 72 hours, mono-methyl arginine, percent activation, single experiment or average of multiple experiments, read-out: EC30 (In Cell Western data, Numerical)

| Structure (SMILES) | EC30 [1, 2] | IC50 (human PRMT6) | EC30 ([1]; read-out: EC30 (In Cell Western data, Numerical, μM)) |
| --- | --- | --- | --- |
| CC(C)Oc1ccc(-c2c(CN(C)CCN)cnn2C)cc1 [Compound 177] | 0.295 µM | 34.2 nM | – |
| CN(CCN)Cc1c[nH]nc1-c1ccc(OC2CCOCC2)cc1 [Compound 178] | 0.954 µM | 7.22 nM | – |
| COCCCOc1ccc(-c2n[nH]cc2CN(C)CCN)cc1 [Compound 179] | 0.03 µM | 13.4 nM | – |
| CNCCN(C)Cc1c[nH]nc1-c1ccc(OC(C)C)c(F)c1 [Compound 181] | 0.046 µM | 17.3 nM | – |
| CNCCN(C)Cc1c[nH]nc1-c1ccc(Cl)c(F)c1 [Compound 182] | 0.179 µM | 5.48 nM | – |
| CN(CCN(C)C1CC1)Cc1c[nH]nc1-c1ccc(C#N)cc1 [Compound 184] | 2.41 µM | 2380 nM | – |
| CN(CCN1CCC1)Cc1c[nH]nc1-c1ccc(C#N)cc1 [Compound 185] | > 20 µM | 407 nM | – |
| CC(C)Oc1cccc(-c2n[nH]cc2CN(C)CCN)c1 [Compound 187] | 7.07 µM | 77.6 nM | – |
| CC(C)Oc1cc(-c2n[nH]cc2CN(C)CCN)ccc1F [Compound 188] | 12.3 µM | 37.4 nM | – |
| CCC(=O)N1CCN(c2ccc(-c3n[nH]cc3CN(C)CCN)cc2)CC1 [Compound 189] | > 20 µM | 29.5 nM | – |
| CC(C)CN1C(=O)COc2ccc(-c3n[nH]cc3CN(C)CCN)cc21 [Compound 191] | > 20 µM | 435 nM | – |
| CN(CCN)Cc1c[nH]nc1-c1ccc2c(c1)OCC(=O)N2C [Compound 192] | > 20 µM | 34.6 nM | – |
| CC(C)CN1C(=O)COc2cc(-c3n[nH]cc3CN(C)CCN)ccc21 [Compound 193] | 9.72 µM | 247 nM | – |
| CN(CCN)Cc1c[nH]nc1-c1ccc(OCCO)cc1 [Compound 194] | 17 µM | 15.3 nM | – |
| CN(CCN)Cc1c[nH]nc1-c1ccc(OCCCO)cc1 [Compound 195] | 7.18 µM | 9.24 nM | – |
| CN(CCN)Cc1c[nH]nc1-c1ccc2c(c1)N(C)C(=O)CO2 [Compound 196] | > 20 µM | 28.7 nM | – |
| CCNC(=O)c1cccc(-c2n[nH]cc2CN(C)CCN)c1 [Compound 197] | > 20 µM | 67.2 nM | – |
| CCN(C)C(=O)c1cccc(-c2n[nH]cc2CN(C)CCN)c1 [Compound 198] | > 20 µM | 322 nM | – |
| Cc1cc(-c2n[nH]cc2CN(C)CCN)cc(C)c1OC(C)C [Compound 199, N^1-((3-(4-isopropoxy-3,5-dimethylphenyl)-1H-pyrazol-4-yl)methyl)-N^1-methylethane-1,2-diamine] | 2.82 µM | 103 nM | – |

| Structure (SMILES) | EC30 [1, 2] | IC50 (human PRMT6) | EC30 ([1]; read-out: EC30 (In Cell Western data, Numerical, μM)) |
| --- | --- | --- | --- |
| CN(CCN)Cc1c[nH]nc1-c1ccc(Oc2ccccc2)c(C#N)c1 [Compound 202] | 0.941 µM | 2.9 nM | – |
| CN(CCN)Cc1n[nH]cc1-c1ccc(Oc2ccccc2)cc1 [Compound 203] | 1.72 µM | 2.42 nM | – |
| CNCCN(C)Cc1n[nH]cc1-c1ccc(Oc2ccccc2)cc1 [Compound 204] | 0.801 µM | 1.14 nM | – |
| CN(CCN)Cc1c[nH]nc1-c1ccc(Oc2cccc(F)c2)cc1 [Compound 205] | 1.69 µM | 1.53 nM | – |
| CNCCN(C)Cc1cn(C)nc1-c1ccc(OC(C)C)c(Cl)c1 [Compound 206] | – | 21.4 nM | 1.16 µM |
| CNCCN(C)Cc1cn(C)nc1-c1ccc(Oc2ccccc2)cc1 [Compound 207] | 2.31 µM | 3.3 nM | – |
| CNCCN(C)Cc1cnn(C)c1-c1ccc(Oc2ccccc2)cc1 [Compound 208] | 0.696 µM | 2.93 nM | – |
| CNCCN(C)Cc1c[nH]nc1-c1ccc(OCCCOC)cc1 [Compound 209] | 0.557 µM | 4.05 nM | – |
| CNCCN(C)Cc1n[nH]cc1-c1ccc(OC(C)C)c(F)c1 [Compound 210] | 0.268 µM | 16.1 nM | – |
| CC(C)Oc1ccc(-c2c[nH]nc2CN(C)CCN)cc1Cl [Compound 211] | 0.523 µM | 20.5 nM | – |
| CNCCN(C)Cc1n[nH]cc1-c1ccc(OC(C)C)c(Cl)c1 [Compound 212] | 0.238 µM | 9.07 nM | – |
| CCn1cc(CN(C)CCNC)c(-c2ccc(OC(C)C)cc2)n1 [Compound 213] | 0.708 µM | 82.1 nM | – |
| CNCCN(C)Cc1cn(C2CCCC2)nc1-c1ccc(OC(C)C)cc1 [Compound 214] | 2.25 µM | 124 nM | – |
| CNCCN(C)Cc1cn(C2CCOC2)nc1-c1ccc(OC(C)C)cc1 (centres unmarked) [Compound 215] | 7.47 µM | 323 nM | – |
| CNCCN(C)Cc1cnn(C2CCOC2)c1-c1ccc(OC(C)C)cc1 (centres unmarked) [Compound 216] | 0.726 µM | 27.7 nM | – |
| CNCCN(C)Cc1cn(Cc2ccccc2)nc1-c1ccc(OC(C)C)cc1 [Compound 217] | 2.15 µM | 42.1 nM | – |
| C=CCn1cc(CN(C)CCNC)c(-c2ccc(OC(C)C)cc2)n1 [Compound 218] | 5.74 µM | 132 nM | – |
| C=CCn1ncc(CN(C)CCNC)c1-c1ccc(OC(C)C)cc1 [Compound 219] | 0.919 µM | 30.8 nM | – |
